Results reported in patent US11891425B2, “Thioamide-modified peptides and uses thereof” (THE TRUSTEES OF THE UNIVERSITY OF PENNSYLVANIA, priority 2014, dated 2024).
Where two headings read alike, the source gives them in different places.

Assays:
[1] = cited from earlier work
FIG. 17 = test: FIG. 17
Description: Table printed on a drawing sheet, FIG. 17
The patent's description of the figure: FIG. 17 illustrates systematic scanning of the effects of thioamide modification position in a peptide. The thioamide modifications were conducted at different positions of the peptide chain. The resulting peptides were mixed with either papain or trypsin enzymes to measure the changes of fluorescence intensity. The “+” sign after the peptide sequence means the presence of the corresponding enzyme. The “−” sign after the peptide sequence means the lack of the corresponding enzyme.
First reader's note: Raised S after a residue marks the thioamide position; the half-lives are proteolytic half-lives in the presence of papain or trypsin.

[2] = native peptide, DPP-4 substrate

Substance: GIP: glucose-dependent insulinotropic factor, SEQ ID NO:5
- half-life (in vivo / circulating) ([1]; in vivo): less than 15 minutes

Substance: μLLKAAA^Sμ [compound 58]
- Papain t1/2 (FIG. 17): 5 min
- Trypsin t1/2 (FIG. 17): 2 min

Substance: μLL^SKAAAμ [compound 54]
- Papain t1/2 (FIG. 17): 180 min
- Trypsin t1/2 (FIG. 17): 2 min

Substance: μLLKAAAμ [compound 52]
- Papain t1/2 (FIG. 17): 5 min
- Trypsin t1/2 (FIG. 17): 1 min

Substance: μLLKAA^SAμ [compound 57]
- Papain t1/2 (FIG. 17): 4 min
- Trypsin t1/2 (FIG. 17): 2 min

Substance: ENT: enterostatin, SEQ ID NO:47 (APGPR; listed as Homo sapiens)
- half-life (in vivo / circulating) [1, 2]: 5 min

Substance: GHRH: growth-hormone-releasing hormone, SEQ ID NO:43
- half-life (in vivo / circulating) [1, 2]: 19 min

Substance: μLLR^SAAAμ [compound 55]
- Papain t1/2 (FIG. 17): 12 min
- Trypsin t1/2 (FIG. 17): >200 min

Substance: NPY: neuropeptide Y, SEQ ID NO:23, 36-amino acid peptide
- half-life (in vivo / circulating) [1, 2]: 15 to 20 min

Substance: μLLKA^SAAμ [compound 56]
- Papain t1/2 (FIG. 17): >30 min
- Trypsin t1/2 (FIG. 17): 3 min

Substance: μL^SLKAAAμ [compound 53]
- Papain t1/2 (FIG. 17): 4 min
- Trypsin t1/2 (FIG. 17): 4 min
